{
  "source": "patent US11857634B2",
  "about": "“Cationic amphiphilic polymers for codelivery of hydrophobic agents and nucleic acids” (University of Pittsburgh—Of the Commonwealth System of …, priority 2018, dated 2024)",
  "key": {"[1]": {"experiment": "In vitro DOX release from POEG-st-Pmor micelles by dialysis", "format": "physicochemical", "conditions": "first 4 hours, PBS, 37 °C", "method": "In vitro drug release study for POEG-st-Pmor micelles. The in vitro DOX release kinetics for the POEG-st-Pmor micelles was determined by a dialysis method. Briefly, 0.5 ml of DOX-loaded micelles and micelles co-loaded with DOX and IL-36γ plasmid at a DOX concentration of 0.5 mg/mL were placed into a dialysis bag (MW cutoff 3,500), respectively. The dialysis bag was incubated in 100 mL PBS with gentle shaking at 37° C. Two ml of PBS solution outside of the dialysis bag was collected at different time points and equal amount of fresh PBS was added back. The concentrations of released DOX were determined by HPLC."}, "[2]": {"experiment": "Cellular uptake of DOX by confocal laser scanning microscopy (POEG-st-Pmor)", "format": "cell-based", "conditions": "2 h of incubation", "excerpt": "The cellular uptake of DOX-loaded POEG-st-Pmor micelles was investigated by confocal laser scanning microscopy with free DOX as a control. […] This may, for example, be a result of different cellular uptake routes of free DOX and DOX micelles."}, "[3]": {"tested_on": "4T1.2 breast cancer lung metastasis", "experiment": "Mouse model of breast cancer lung metastasis (4T1.2), POEG-st-Pmor formulations", "format": "in vivo, mice", "conditions": "i.v. every three days for three times; DOX 5 mg/kg, plasmid 50 μg per mouse", "method": "Mouse model of breast cancer lung metastasis. Female Balb/c mice were injected with 2×10^5 4 T1.2 cells through the tail vein. Five days after tumor cell injection, mice were randomly divided into 6 groups. POEG-st-Pmor was chosen as a representative carrier system for codelivery of IL-36γ plasmid and DOX. […] The PBS treatment group was used as control. DOX dosage was 5 mg/kg and plasmid dosage was 50 μg per mouse. Lung tissues were harvested and weighted 11 days after the first injection. Pulmonary metastases were enumerated by intra-tracheal injection of India ink solution. India ink-injected lungs were washed in Feket's solution (300 ml 70% EtOH, 30 ml 37% formaldehyde and 5 ml glacial acetic acid) and white tumor nodules against a dark blue lung background were counted.\nHistopathological analysis. The lung tissues were harvested and fixed in 10% formalin after the above treatments. The fixed samples were then embedded in paraffin and the tissue sections were stained with hematoxylin/eosin and analyzed for the presence of metastases under microscope. The total number of metastases per lung section was counted in different treatment groups."}, "[4]": {"tested_on": "immune cells in lung tissues", "experiment": "Tumor-infiltrating lymphocytes and MDSCs in tumor-bearing lungs, flow cytometry (POEG-st-Pmor)", "format": "in vivo, mice", "conditions": "compared to untreated control group", "method": "Analysis of tumor-infiltrating lymphocytes and myeloid-derived suppressor cells. Lung tissues were collected in serum free RPMI medium and cut mechanically with scissors. Liberase TL (0.3 mg/ml) and DNase I (0.3 mg/ml) were used to digest the lung tissues and tumor nodules. Tissues were further grinded and filtered through a […] cell strainer. TILs and MDSC cells were further purified and stained with fluorescence-labeled antibody for flow cytometry analysis using a FACS flow cytometer."}, "[5]": {"experiment": "DOX release from POEG-PCre micelles by dialysis against DPBS", "format": "physicochemical", "conditions": "first 4 h, DPBS pH 7.4, 37 °C", "method": "The release kinetics of DOX from DOX-loaded POEG-PCre micelles was investigated by dialysis against DPBS of pH 7.4 at 37° C. […] To the contrary, only 16% of DOX was released from DOX/POEG-PCre micelles in first 4 h, and less than 40% of DOX was released for an extended period of 96 h."}, "[6]": {"tested_on": "4T1.2 cells", "experiment": "Intracellular co-delivery of DOX and MFP488-labeled tRNA-mir-34a, confocal microscopy", "format": "cell-based, murine", "conditions": "4 h", "method": "To monitor intracellular co-delivery of DOX and tRNA-mir-34a, tRNA-mir-34a was labeled with MFP488 fluorescent dye to visualize the cell uptake of tRNA-mir-34a along with red fluorescence of DOX. 4T1.2 cells were incubated for 4 h with micelle complexes carrying DOX and/or MFP488-labeled tRNA-mir-34a and then observed under a confocal microscope. Naked tRNA-mir-34a without any transfection agent was used as a negative control."}, "[7]": {"tested_on": "Dicer", "experiment": "Induction of Dicer after treatment", "format": "cell-based", "conditions": "dose dependent"}, "[8]": {"tested_on": "4T1.2 cells", "experiment": "In vitro cytotoxicity, MTT assay (POEG-PCre formulations)", "format": "cell-based, murine", "conditions": "48 h; DOX 7.8-1,000 ng/mL, tRNA-mir 0.78-100 nM, carrier 78-10000 ng/mL", "method": "The in vitro cytotoxicity of DOX+tRNA-mir-34a co-loaded POEG-PCre micelles was evaluated by MTT assay. Tumor cells were treated with various formulations for 48 h, with the doses of DOX, tRNA-mir, and POEG-PCre carrier ranging from 7.8 to 1,000 ng/mL, 0.78 nM to 100 nM, and 78 ng/mL to 10000 ng/mL, respectively. […] A similar trend was also observed in MDA-MB-231 breast cancer cells (FIG. 14B)."}, "[9]": {"tested_on": "breast cancer cells", "experiment": "Apoptosis assay, Annexin V/propidium iodide flow cytometry", "format": "cell-based", "method": "The enhanced cytotoxicity of DOX+tRNA-mir-34a-co-loaded nanocomplexes was assessed via apoptosis assay. Cell apoptosis was evaluated quantitatively by Annexin V/propidium iodide flow cytometry."}, "[10]": {"tested_on": "4T1.2 cancer cells", "experiment": "Cell migration, wound closure assay", "format": "cell-based, murine", "conditions": "4T1.2, 24 h", "excerpt": "Besides cancer cell viability, cell migration represents a critical process for tumor progression and metastasis. MiR-34a has been reported to be functional as an anti-metastatic miRNA by directly targeting CD44 and NOTCH-1. Therefore, the effect of tRNA-mir-34a and DOX co-loaded nanocomplexes on the cell migration was investigated using the wound closure assay."}, "[11]": {"tested_on": "4T1.2 tumor metastasis", "experiment": "Breast cancer lung metastasis model (4T1.2), POEG-PCre formulations", "format": "in vivo, mice", "conditions": "i.v. every 3 d for 3 times, analysed 5 days after last treatment", "method": "The in vivo anti-tumor efficacy of DOX+tRNA-mir-34a co-loaded nanocomplexes was evaluated in a breast cancer lung metastasis model, generated by tail-vein injection of 4T1.2 tumor cells into female Balb/c mice. Five days after tumor inoculation, various treatments were applied to each group of mice (n=5) via i.v. administration every 3 d for 3 times. The tumor burdens in the lungs were analyzed 5 days after the last treatment. […] No significant decrease of body weight was observed, indicating the safety of the formulation (FIG. 15C).\nTo further confirm the anticancer efficacy, H&E staining and immunohistochemical analysis of Ki67 were performed in tumor-bearing lungs."}, "[12]": {"experiment": "Toxicity: body weight, blood chemistry, H&E staining of major organs", "parameters": "species or system mice", "conditions": "mouse, in vivo", "method": "In addition, blood chemistry tests were performed to evaluate the effect of our formulations on liver and kidney functions. […] Moreover, the H & E staining of major organs was carried out to further evaluate the potential toxicity of different treatments."}, "[13]": {"tested_on": "immune cells in tumor-bearing lungs", "experiment": "Immune cells in tumor-bearing lungs (POEG-PCre formulations)", "parameters": "species or system mice", "conditions": "mouse, in vivo", "excerpt": "Treatment with tRNA-mir-34a alone or tRNA-mir-34a/DOX combination reduced the numbers of PD1+ CD8 cells (FIG. 16D) and T-regulatory cells (Tregs) (FIG. 16E)."}, "[14]": {"experiment": "Intracellular uptake and distribution of DOX at pH 6.8 and 7.4, CLSM", "format": "cell-based", "conditions": "4 h incubation", "excerpt": "Intracellular uptake and distribution of DOX-loaded micelles and IL-12/DOX co-loaded PMet-P(cdmPEG2K) micelleplexes was investigated by CLSM."}, "[15]": {"tested_on": "4T1.2 breast cancer cells", "experiment": "In vitro cytotoxicity, MTT assay (POEG-st-Pmor formulations)", "conditions": "4T1.2 cells, 72 h", "protocol": "Briefly, 4T1.2 cells (2,000 cells/well) were seeded in 96-well plates for overnight and were treated with various concentrations of DOX formulations for 72 h. MTT solution was added to each well and MTT formazan was solubilized by DMSO after 2 h of incubation. The absorbance in each well was measured by a microplate reader at a wavelength of 570 nm. Cell viability was calculated as [(ODtreat−ODblank)/(ODcontrol−ODblank)×100%]. The cytotoxicity of POEG-st-Pmor micelles alone was similarly tested in 4T1.2 cells as described above."}},
  "note": "“Also recorded” adds a separate entry of the source.",
  "data": [
    {"compound": "COc1cccc2c1C(=O)c1c(O)c3c(c(O)c1C2=O)C[C@@](O)(C(=O)CO)C[C@@H]3O[C@H]1C[C@H](N)[C@H](O)[C@H](C)O1", "note": "[free DOX, Doxorubicin]", "values": [
      {"measurement": "DOX released", "setting": "[1]", "value": 80, "unit": "%"},
      {"measurement": "Intracellular location of DOX signals", "setting": "[2]", "value": "largely found in the nucleus"},
      {"measurement": "Antitumor activity / inhibition of lung metastasis", "setting": "[3]", "value": "significant inhibition of lung metastasis; also recorded: significant activity"},
      {"measurement": "CD4+ T cells in lung tissues", "setting": "[4]", "value": "significant increase"},
      {"measurement": "CD8+ T cells in lung tissues", "setting": "[4]", "value": "significant increase"},
      {"measurement": "DOX released", "setting": "[5]", "value": "more than 80%"},
      {"measurement": "Intracellular location of fluorescence signals", "setting": "[6]", "value": "largely found in the nucleus"},
      {"measurement": "Dicer expression", "setting": "[7]", "value": "induction of Dicer"},
      {"measurement": "Cell growth inhibition / cytotoxicity", "setting": "[8]", "value": "inhibited the proliferation of tumor cells in a dose dependent manner"},
      {"measurement": "Cell apoptosis", "setting": "[9]", "value": "~31", "unit": "%"},
      {"measurement": "Inhibition of cell migration", "setting": "[10]", "value": "~40", "unit": "%"},
      {"measurement": "Inhibition of lung metastasis / tumor nodules in lungs", "setting": "[11]", "value": "Dramatic reduction in the number of tumor nodules"},
      {"measurement": "Pathological changes, H&E staining of major organs", "setting": "[12]", "value": "signs of myocytolysis and myofibrillolysis with fibrils dearrangement; also recorded: hepatocellular vacuolation"},
      {"measurement": "Numbers of CD4 cells in tumor-bearing lungs", "setting": "[13]", "value": "significant increase"},
      {"measurement": "Numbers of CD8 cells in tumor-bearing lungs", "setting": "[13]", "value": "significant increase"},
      {"measurement": "Numbers of MDSC", "setting": "[13]", "value": "trend of decreases"},
      {"measurement": "Numbers of functional CD8 (IFN-γ+ CD8) cells", "setting": "[13]", "value": "trend of increase"},
      {"measurement": "Cellular uptake compared with DOX-loaded micelles", "setting": "[14]", "value": "slightly stronger fluorescence signal"},
      {"measurement": "Intracellular DOX fluorescence at pH 6.8 versus pH 7.4", "setting": "[14]", "value": "not significantly affected by pH"},
      {"measurement": "Cytotoxicity", "setting": "[15]; DOX 4 to 1000 ng/mL", "value": "dose-dependent cell killing profile"},
      {"measurement": "IC50", "setting": "[15]; MTT, as DOX", "value": 0.13, "unit": "µg/mL"}
    ]}
  ]
}
